According to patent US11234982B2, “Methods for treating ocular surface pain” (NOVARTIS AG, priority 2019, dated 2022):
Read-outs that look alike come from different tables or passages of the source.

Key:
[1] = system: patients undergoing photorefractive keratectomy (PRK) surgery; assay: PRK study: oral rescue medication (ORM) use; format: in vivo, human; details: for Number of patients who did not use oral rescue medication: 2.5%; for Number of patients who did not use oral rescue medication / Amount of oral rescue medication (Number of pills), Mean (SD) / Amount of oral rescue medication (Number of pills), Range / Amount of oral rescue medication (mg/kg of body weight), Range / Amount of oral rescue medication (mg/kg of body weight), Mean (SD): N = 40; for Amount of oral rescue medication (mg/kg of body weight), Mean (SD): tablet counted as 330 mg
Description: The study was a proof of concept, double-masked, randomized, vehicle-controlled study of compound I administered as eye drops in addition to standard of care treatment in patients after PRK surgery. PRK surgery was performed as an outpatient procedure under topical anesthesia with removal of the corneal epithelium to expose the stroma for the laser ablation. Compound I dosing was as single eye drop of 2.5% (25 mg/ml, 0.925 mg/drop), administered four times daily (every six hours) in one eye from immediate post-op (time 0) to last dose at 72 hours.
Rescue medication consisted of oral analgesic (acetaminophen 300 mg+codeine 30 mg) as needed up to a total of 10 tabs/day or 1-2 tabs every 4 hours.
Rescue oral analgesics: It is not ethical to refuse pain control medication to patients postoperatively as part of a clinical trial. […] Because the use of oral rescue medication may be a potential confounder of the pain VAS evaluation, three approaches were used when analyzing pain VAS scores to account for the influence of pain meds (assuming 4 hours of rescue medication effect): (1) any recorded VAS score within 4 hours after use of rescue medication was considered missing; (2) all the recorded VAS scores was used; and (3) any recorded VAS scores within 4 hours after rescue medication use was imputed by the record taken prior to the rescue medication.

[2] = PRK study: plasma pharmacokinetics of compound I; format: in vivo, human; details: for Tmax: read-out: Tmax, Min, Max
Description: Pharmacokinetic (PK) samples were collected at the time points defined in the visit schedule supra, with PK blood collection windows shown in Table 9.
All blood samples (3 mL) were taken from the arm by either direct venipuncture or an indwelling catheter inserted in a forearm vein. After each tube of blood was drawn, it was immediately inverted gently 8-10 times to ensure the mixing of tube contents with anticoagulant (3 mL K2 EDTA). Prolonged sample contact with the rubber stopper was avoided and the tubes were placed upright in a test tube rack surrounded by wet ice until centrifugation.
Within 30 minutes, the sample was centrifuged at about 5° C. for 10 minutes at approximately 2000 G (or the sample was placed on ice and centrifuged at room temperature). Immediately after centrifugation, the whole supernatant (approx. 1.5 mL) was transferred in the first 1.8 mL NUNC 2D barcoded cryovial. After mixing the plasma thoroughly, half of the plasma was transferred from the first cryovial to the second cryovial and the caps were secured. Appropriate PK cryolabels were attached to each cryovial and the labels were secured with clear tape. The cryovials were frozen immediately over dry ice then, kept frozen at ≤−20° C. until shipment to the central lab. The vials were shipped in biweekly batches.
Compound I was quantified in plasma using a validated LC-MS/MS method; the lower limit of quantification (LLOQ) was 0.05 ng/mL. Concentrations were expressed in ng per mL units. When feasible, bandage contact lenses (BCL) exposed to study drug were collected and analyzed for residual drug exposure after treatment (LLOQ: 5.00 ng/mL in 0.55 mL of extraction fluid, or 2.75 ng/BCL). Concentrations below the LLOQ were reported as “zero” and missing data were labeled as such.
The following PK parameters were determined as relevant using the actual recorded sampling times and non-compartmental method with Phoenix™ WinNonlin® (Version 6.4): Cmax, Tmax, AUClast (calculated), Clast and Tlast from the plasma concentration-time data. Pre-dose concentrations were determined by inspection at nominal 0, 24 and 72 hours. The linear trapezoidal rule was used for AUClast calculation. No PK parameters were calculated from the bandage contact lenses compound I concentration data.

[3] = across 4 days of repeated QID dosing
[4] = plasma, Day 1 (first dose), 2.5% topical ocular
[5] = plasma, Day 1 (first dose), 2.5% topical ocular, N 34
[6] = plasma, Day 4 (13th dose), 2.5% four times daily

For `CC(C)c1nc2cc(O)ccc2c(=O)n1-c1ccc(C#N)cc1` [Compound I, 4-(7-hydroxy-2-isopropyl-4-oxo-4H-quinazolin-3-yl)-benzonitrile], the “Amount of ORM (Number of pills), % Change (Compound I-Vehicle)/Vehicle” value ([1]; 0-6 hours post-operatively) was −25%, the “Amount of ORM (mg/kg of body weight), % Change (Compound I-Vehicle)/Vehicle” value ([1]; 0-6 hours post-operatively) was −25% and the “Number of patients who did not use oral rescue medication” value ([1]; 0-6 hours post-operatively) was 23 (57.5%) n (%). For the same molecule, the “Amount of oral rescue medication (Number of pills), Mean (SD)” value (shortened to “Amount … (Number of pills), Mean (SD)”) ([1]; 0-6 hours post-operatively) was 0.75 (1.032) Number of pills, the “Amount of oral rescue medication (Number of pills), Range” value (“Amount … (Number of pills), Range” for short) ([1]; 0-6 hours post-operatively) was 0.0-4.0 Number of pills and the “Amount of oral rescue medication (mg/kg of body weight), Range” value (“Amount … (mg/kg of body weight), Range” below) ([1]; 0-6 hours post-operatively) was 0.0-19.2 mg/kg of body weight. The “Amount of oral rescue medication (mg/kg of body weight), Mean (SD)” value (“Amount … (mg/kg of body weight), Mean (SD)” below) ([1]; 0-6 hours post-operatively) was 3.32 (4.684) mg/kg of body weight, the “Number of patients who did not use ORM, compound I-treated eye compared to Vehicle-treated eye” value ([1]; 0-6 hours, 0-12 hours and 0-24 hours post-operatively) was “higher” and the “Amount of ORM (Number of pills), % Change (Compound I-Vehicle)/Vehicle” value ([1]; 0-12 hours post-operatively) was −15%. For the same molecule, the “Amount of ORM (mg/kg of body weight), % Change (Compound I-Vehicle)/Vehicle” value ([1]; 0-12 hours post-operatively) was −17%, the “Number of patients who did not use oral rescue medication” value ([1]; 0-12 hours post-operatively) was 19 (47.5%) n (%) and the “Amount … (Number of pills), Mean (SD)” value ([1]; 0-12 hours post-operatively) was 1.40 (1.780) Number of pills. For the same molecule, the “Amount … (Number of pills), Range” value ([1]; 0-12 hours post-operatively) was 0.0-6.0 Number of pills, the “Amount … (mg/kg of body weight), Range” value ([1]; 0-12 hours post-operatively) was 0.0-28.7 mg/kg of body weight and the “Amount … (mg/kg of body weight), Mean (SD)” value ([1]; 0-12 hours post-operatively) was 6.10 (8.062) mg/kg of body weight. For the same molecule, the “Amount of ORM (Number of pills), % Change (Compound I-Vehicle)/Vehicle” value ([1]; 0-24 hours post-operatively) was −16%, the “Amount of ORM (mg/kg of body weight), % Change (Compound I-Vehicle)/Vehicle” value ([1]; 0-24 hours post-operatively) was −18% and the “Number of patients who did not use oral rescue medication” value ([1]; 0-24 hours post-operatively) was 16 (40.0%) n (%). For the same molecule, the “Amount … (Number of pills), Mean (SD)” value ([1]; 0-24 hours post-operatively) was 2.35 (2.751) Number of pills, the “Amount … (Number of pills), Range” value ([1]; 0-24 hours post-operatively) was 0.0-10.0 Number of pills and the “Amount … (mg/kg of body weight), Range” value ([1]; 0-24 hours post-operatively) was 0.0-47.9 mg/kg of body weight. The “Amount … (mg/kg of body weight), Mean (SD)” value ([1]; 0-24 hours post-operatively) was 10.17 (12.335) mg/kg of body weight, the “Number of patients who did not use oral rescue medication” value ([1]; 0-2 days post-operatively) was 11 (27.5%) n (%) and the “Amount of ORM (Number of pills), % Change (Compound I-Vehicle)/Vehicle” value ([1]; 0-48 hours post-operatively) was −13%. The “Amount of ORM (mg/kg of body weight), % Change (Compound I-Vehicle)/Vehicle” value ([1]; 0-48 hours post-operatively) was −14%, the “Amount … (Number of pills), Mean (SD)” value ([1]; 0-48 hours post-operatively) was 4.05 (4.466) Number of pills and the “Amount … (Number of pills), Range” value ([1]; 0-48 hours post-operatively) was 0.0-16.0 Number of pills. The “Amount … (mg/kg of body weight), Range” value ([1]; 0-48 hours post-operatively) was 0.0-76.6 mg/kg of body weight, the “Amount … (mg/kg of body weight), Mean (SD)” value ([1]; 0-48 hours post-operatively) was 17.59 (19.850) mg/kg of body weight and the “Number of patients who did not use oral rescue medication” value ([1]; 0-3 days post-operatively) was 11 (27.5%) n (%). For the same molecule, the “Amount of ORM (Number of pills), % Change (Compound I-Vehicle)/Vehicle” value ([1]; 0-72 hours post-operatively) was −14%, the “Amount of ORM (mg/kg of body weight), % Change (Compound I-Vehicle)/Vehicle” value ([1]; 0-72 hours post-operatively) was −15% and the “Amount … (Number of pills), Mean (SD)” value ([1]; 0-72 hours post-operatively) was 4.33 (4.896) Number of pills. The “Amount … (Number of pills), Range” value ([1]; 0-72 hours post-operatively) was 0.0-21.0 Number of pills, the “Amount … (mg/kg of body weight), Range” value ([1]; 0-72 hours post-operatively) was 0.0-87.4 mg/kg of body weight and the “Amount … (mg/kg of body weight), Mean (SD)” value ([1]; 0-72 hours post-operatively) was 18.70 (21.509) mg/kg of body weight. For the same molecule, the “Amount of ORM (mg/kg of body weight) during compound I vs. Vehicle treatment” value ([1]; every time interval) was “less”, the “ORM taken during compound I vs. Vehicle treatment (number of pills)” value ([1]; every time interval during the study) was “less ORM taken” and the “Mean AUClast increase over the 4 days (Day 4 vs Day 1)” value ([2]; 2.5% 4 times daily) was 6.9 fold. The “Mean Cmax after 13th dose on Day 4 relative to first dose on Day 1” value ([2]; 2.5% 4 times daily) was 5.3 fold, the “AUClast, range” value [2, 3] was 0.261 to 14.5 ng·h/mL and the “Observed Cmax, range” value [2, 3] was 0.195 to 7.56 ng/mL. For the same molecule, the “Median plasma Tmax” value ([2]; after either single (first dose) or repeated 4 times daily topical ocular administration) was “approximately 0.5 hours”, the Cmax ([2]; human, plasma, topical, 2.5 % (four times daily), across 4 days of repeated QID dosing, read-out: Observed Cmax, range) was 0.195 to 7.56 ng/mL and the Tmax ([2]; human, topical or ocular, plasma, Day 1 (first dose), 2.5% topical ocular) was 10 to 120 min. The Tmax ([2]; human, topical, plasma, Day 4 (13th dose), 2.5% four times daily) was 0 to 125 min, the “AUClast, Median” value [2, 4] was 0.569 ng·h/mL and the “Cmax, Median” value [2, 4] was 0.375 ng/mL. For the same molecule, the “Tmax, Median” value [2, 4] was 27.5 min, the “AUClast, Mean (SD)” value [2, 5] was 0.638 ng·h/mL and the “Cmax, Mean (SD)” value [2, 5] was 0.454 ng/mL. For the same molecule, the “AUClast, Median” value [2, 6] was 3.42 ng·h/mL, the “Cmax, Median” value [2, 6] was 2.07 ng/mL and the “Tmax, Median” value [2, 6] was 28 min. For the same molecule, the “AUClast, Mean (SD)” value ([2]; plasma, Day 4 (13th dose), 2.5% four times daily, N 31) was 4.38 ng·h/mL, the “Cmax, Mean (SD)” value ([2]; plasma, Day 4 (13th dose), 2.5% four times daily, N 33) was 2.40 ng/mL and the “Trough mean plasma concentration (end of 6-hour dose interval)” value ([2]; prior to the 5th dose on Day 2 (24 hr post 1st dose)) was 1.25 ng/mL. For the same molecule, the “Trough mean plasma concentration (end of 6-hour dose interval)” value ([2]; prior to the 13th dose on Day 4 (72 hr post 1st dose)) was 1.99 ng/mL.
